In PMC12523147, “Thyroid hormone receptor beta signaling is a targetable driver of prostate cancer growth” (Molecular Cancer, 2025) one finds Ki data, which are given here for one molecule.

The experiment addresses T1, thyroid hormone receptor β (TRβ) (Homo sapiens, UniProt P10828).
T1 construct: gene THRB
Description: biochemical.

T1 sequence (P10828 whole entry): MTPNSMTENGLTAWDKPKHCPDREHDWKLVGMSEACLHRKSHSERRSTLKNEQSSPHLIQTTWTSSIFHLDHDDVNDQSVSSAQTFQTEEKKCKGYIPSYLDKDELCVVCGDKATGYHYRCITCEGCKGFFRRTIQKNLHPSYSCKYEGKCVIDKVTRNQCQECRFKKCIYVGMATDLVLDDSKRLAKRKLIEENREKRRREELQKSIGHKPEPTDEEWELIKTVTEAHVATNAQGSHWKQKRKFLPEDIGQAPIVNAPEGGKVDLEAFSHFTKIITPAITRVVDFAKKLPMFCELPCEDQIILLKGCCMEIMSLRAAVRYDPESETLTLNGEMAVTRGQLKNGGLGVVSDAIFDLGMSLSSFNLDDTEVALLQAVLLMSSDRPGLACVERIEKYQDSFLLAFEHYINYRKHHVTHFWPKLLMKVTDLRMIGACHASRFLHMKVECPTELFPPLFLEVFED

The Ki is the dissociation constant of the complex between target and ligand, obtained from inhibition or displacement. A low value points to a stronger hold on the target. `Cc1cc(OCC(=O)O)cc(C)c1Cc1cc(C#Cc2ccc([N+](=O)[O-])cc2)c(O)c(C(C)C)c1` [NH-3] displayed a Ki of 1.31 nM.
